Laboratory results taken from article PMC4039119 (Oncotarget, 2014).
pIC50: −log10 of the molar value. Read-outs that look alike come from different tables or passages of the source.

Key:
[1] = system: normal human melanocyte epithelial (PIG1) cells; assay: Sulforhodamine B cell survival assay in normal cells; assay type: cell-based; settings: 50nM CuB for 72h
Method: The cells were fixed with ice cold 10% trichloroacetic acid, washed and stained with sulforhodamine B (SRB) dye and the optical density was measured in Tris base solution using plate reader, after washing the dye with 1% acetic acid solution as described by us previously. […]
vivo breast tumor growth suppression – Gupta et al
24, 48h and 72h. Cell survival was measured with sulforhodamine B assay to estimate the IC50 values. The ex periments were repeated at least three times with 4 replicates in each ex periment. B. Comparison of the cell survival of PIG1 and the breast cancer cell lines at 50nM […]
(1 picture or pasted object on this page, not shown here)

[2] = system: MDA-MB-231, SKBR3, MCF-7 and 4T-1 breast cancer cells; assay: Sulforhodamine B cell survival assay, range over the breast cancer cell panel; assay type: cell-based
Method: The cells were fixed with ice cold 10% trichloroacetic acid, washed and stained with sulforhodamine B (SRB) dye and the optical density was measured in Tris base solution using plate reader, after washing the dye with 1% acetic acid solution as described by us previously.

MCF-7 cells = assay: Annexin V-FITC apoptosis assay; assay type: cell-based, human; settings: MCF-7, 75nM CuB for 72h
Method: (§1) Apoptosis assay was performed using a kit (BD Biosciences, CA) according to manufacturer's instructions. Approximately, 0.1x10^6 cells were plated in 6-well plate and left overnight for attachment. […] A 5.0μl of Annexin V-FITC and 5μl of propidium iodide (BD Biosciences, San Jose, CA) were added to the 100μl of suspension and incubated for additional 20 min at room temperature in dark. Total sample volume was made up to 200μl with binding buffer. Samples were analyzed by flow cytometer after vortexing (Accuri C6, MI).

MDA-MB-231 cells = assay: Annexin V-FITC apoptosis assay; assay type: cell-based, human; settings: MDA-MB-231, 75nM CuB for 72h
Method: as §1

SKBR3 cells = assay: Annexin V-FITC apoptosis assay; assay type: cell-based, human; settings: SKBR3, 75nM CuB for 72h
Method: as §1

4T-1 cells = assay: Annexin V-FITC apoptosis assay; assay type: cell-based, murine; settings: 4T-1, 75nM CuB for 72h
Method: as §1

[3] = system: MDA-MB-231 orthotopic tumors; assay: Orthotopic breast tumor therapy model; assay type: in vivo, female athymic nude mice; settings: 2mg/kg oral gavage every day
Method: Female athymic nude mice (4-6 weeks old) were obtained from Jackson Laboratories (Ban harbor, Maine, USA) and maintained under specific pathogen-free conditions. The use of athymic nude mice and their treatment was approved by the Institutional Animal Care and Use Committee (IACUC), Texas Tech University Health Sciences Center, and the experiments were conducted in strict compliance with the regulations. Mice were given antioxidant-free AIN-76A special diet (TestDiet, Richmond, IN) one week before starting the experiment. Exponentially growing MDA-MB-231 cells were harvested, washed and resuspended in PBS at a density of 50x10^6 cells per ml with 80% matrigel (BD Biosciences, San Jose, CA). A suspension of 0.1mL containing 5x10^6 cells was injected in the mammary fat pads of the recipient mice. Tumor volumes and animal weights were measured twice a week as described by us previously. When the tumors reached a size of about 50-80 mm^3, mice were randomly segregated into two groups with ten mice in each group. […] Mice were sacrificed on day 60 by CO2 overdose and death was confirmed by cervical dislocation in accordance with IACUC guidelines. The tumors were dissected out aseptically from each mouse, weighed and snap frozen in liquid-nitrogen for western blot analysis.

4T-1 orthotopic tumors = assay: Orthotopic breast tumor therapy model; assay type: in vivo, female BALB/c mice; settings: 1mg/kg i.p. every third day
Method: In another experiment, female BALB/c mice (4-6 weeks old) were obtained from Jackson Laboratories (Ban harbor, Maine, USA) and maintained under controlled humidity and temperature conditions. The use of BALB/c mice and their treatment was approved by the Institutional Animal Care and Use Committee (IACUC), Texas Tech University Health Sciences Center, and the experiments were conducted in strict compliance with the regulations. Exponentially growing 4T-1 cells were harvested, washed and re-suspended in PBS at a density of 1x10^6 cells per ml with 50% matrigel. A suspension of 0.1mL containing 0.1x10^6 cells was injected in the mammary fat pads of the recipient mice. Tumor volumes and animal weights were measured every alternate day as described by us previously. When the tumors reached a size of about 30-50 mm3, mice were randomly segregated into two groups with eight mice in each group. […] The control mice received vehicle alone. Mice were sacrificed on day 28 by CO2 overdose and death was confirmed by cervical dislocation in accordance with IACUC guidelines. The tumors were removed aseptically from each mouse, weighed and snap frozen in liquid-nitrogen for further analysis.

melanoma tumors = settings: 1mg/kg intraperitoneal thrice a week, after 23 days; cited from earlier work
[4] = system: non-small lung carcinoma tumor xenografts; settings: 1mg/kg every alternate day for 5 weeks; cited from earlier work
[5] = system: MDA-MB-231 orthotopic tumor; settings: after 36 days, cited from earlier work
[6] = system: ITGA6 in MDA-MB-231 cells; assay: Western blot of ITGA6 expression after TGFβ treatment; assay type: cell-based, human
Method: (§2) Whole cell lysates were prepared using 4% (w/v) CHAPS buffer while tumor lysates were prepared by homogenizing the tumors in RIPA lysis buffer. Proteins from control and treated samples were subjected to SDS-PAGE and the segregated proteins were transferred to PVDF membrane. The membrane was developed as described by us previously. All antibodies used in the study were purchased from Cell signaling except HER2 (Abcam, Cambridge, MA), ITGB4 (Santacruz Biotechnology, Dallas, TX), TWIST (Santacruz Biotechnology, Dallas, TX), phospho Akt (S473) (Santacruz Biotechnology, Dallas, TX) and Caspase 3 (Santacruz Biotechnology, Dallas, TX).

ITGA6 in 4T-1 cells = assay: as above; assay type: cell-based, murine
Method: as §2

Row | Substance | growth inhibition of PIG1 cells [1] | growth inhibition of cancer cell lines SKBR3, MDA-MB-231, MCF-7 and 4-T1 ([2]; 50nM CuB for 72h) | pIC50 ([2]; after 48 and 72 h of treatment) | apoptosis induced (cells) (MCF-7 cells) | apoptosis induced (cells) (MDA-MB-231 cells) | apoptosis induced (cells) (SKBR3 cells) | apoptosis induced (cells) (4T-1 cells) | tumor volume reduction as compared to control ([3]; day 60) [%] | tumor volume in treated group ([3]; day 60, n=10) [mm^3] | tumor weight less than control ([3]; tumors dissected at day 60) | tumor weight reduction (4T-1 orthotopic tumors; day 28) [%] | tumor volume in treated group (4T-1 orthotopic tumors; day 28, n=8) [mm^3] | suppression of tumor growth (melanoma tumors) | tumor volume reduction [4] [%] | tumor volume suppression ([5]; 0.5 mg/kg i.p.) [%] | tumor volume suppression ([5]; 1mg/kg i.p.) [%] | increase of ITGA6 expression [6] | increase of ITGA6 expression (ITGA6 in 4T-1 cells)
1 | Cucurbitacin B [CuB] | 20-30% | 50-70% | 7.30 to 7.74 | about 60% | about 60% | about 80% | about 60% | 55 | 111.3±18.4 | about 53% | 27 | 1446.7±142.6 | about 50% | 70 | 42 | 55 | – | –
2 | TGFβ | – | – | – | – | – | – | – | – | – | – | – | – | – | – | – | – | about 1.5 fold | about 1.5 fold
